# Assay results reported in patent publication US20120083476A1, “HETEROARYL-SUBSTITUTED SPIROCYCLIC DIAMINE UREA MODULATORS OF FATTY ACID AMIDE HYDROLASE” (Janssen Pharmaceutica NV, priority 2009, published 2012).
# Where a name gives a salt, the structure may show the parent alone. Read-outs that look alike come from different tables or passages of the source.
# Key:
# FAAH = molecular target: T1, FAAH (Homo sapiens, UniProt O00519); assay: Assay Method 1: human FAAH assay (3H-anandamide hydrolysis in cell homogenate); format: biochemical; design: expressed in transfected cells; host or cells: SK-N-MC cells stably transfected with human FAAH cDNA (G418 selection); alternatively T84 cell pellets
# T1 sequence (O00519 1-579): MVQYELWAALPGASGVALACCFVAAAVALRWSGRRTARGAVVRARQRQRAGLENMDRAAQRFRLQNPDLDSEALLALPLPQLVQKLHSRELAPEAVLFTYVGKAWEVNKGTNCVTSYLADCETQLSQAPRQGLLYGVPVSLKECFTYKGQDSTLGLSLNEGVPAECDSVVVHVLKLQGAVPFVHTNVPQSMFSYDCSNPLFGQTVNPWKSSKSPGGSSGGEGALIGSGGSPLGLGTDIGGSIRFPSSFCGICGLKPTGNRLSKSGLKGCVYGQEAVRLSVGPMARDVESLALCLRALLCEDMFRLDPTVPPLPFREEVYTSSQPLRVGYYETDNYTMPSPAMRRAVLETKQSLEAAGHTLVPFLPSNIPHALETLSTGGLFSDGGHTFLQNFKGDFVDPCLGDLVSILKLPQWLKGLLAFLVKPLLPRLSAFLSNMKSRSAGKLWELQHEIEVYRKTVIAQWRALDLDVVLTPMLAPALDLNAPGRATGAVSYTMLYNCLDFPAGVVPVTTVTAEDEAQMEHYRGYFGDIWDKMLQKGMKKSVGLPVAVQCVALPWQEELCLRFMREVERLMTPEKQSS
# Method in brief: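 Homogenates of T84 cells or SK-N-MC cells stably transfected with human FAAH, in pH 9 Tris/EDTA buffer with 0.02% Triton X-100. Incubated 1 h at rt with compound and 80 nM (final) [3H-ethanolamine]-anandamide. Released 3H-ethanolamine separated on charcoal filters and counted by scintillation.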
# Rat FAAH = molecular target: T2, Rat FAAH (Rattus norvegicus, UniProt P97612); assay: Assay Method 2: rat FAAH assay (3H-anandamide hydrolysis in cell homogenate); format: biochemical
# T2 construct: expressed in transfected cells; host or cells: SK-N-MC cells stably transfected with rat FAAH cDNA (G418 selection)
# T2 sequence (P97612 1-579): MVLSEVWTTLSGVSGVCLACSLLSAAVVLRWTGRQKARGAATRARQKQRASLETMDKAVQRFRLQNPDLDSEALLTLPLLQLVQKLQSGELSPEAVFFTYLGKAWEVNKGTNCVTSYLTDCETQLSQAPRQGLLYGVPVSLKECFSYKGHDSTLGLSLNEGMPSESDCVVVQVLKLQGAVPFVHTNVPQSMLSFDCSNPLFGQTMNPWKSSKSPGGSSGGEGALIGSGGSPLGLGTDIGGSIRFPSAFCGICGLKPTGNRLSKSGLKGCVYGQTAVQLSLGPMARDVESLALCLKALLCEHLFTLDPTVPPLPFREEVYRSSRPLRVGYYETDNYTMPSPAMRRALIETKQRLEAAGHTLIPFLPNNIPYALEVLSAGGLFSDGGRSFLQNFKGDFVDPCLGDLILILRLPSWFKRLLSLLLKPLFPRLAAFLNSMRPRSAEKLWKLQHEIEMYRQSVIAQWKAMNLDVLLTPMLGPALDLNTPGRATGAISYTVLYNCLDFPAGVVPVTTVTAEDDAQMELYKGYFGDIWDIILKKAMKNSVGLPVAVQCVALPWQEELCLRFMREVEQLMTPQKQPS
# Method in brief: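 Homogenates of T84 cells or SK-N-MC cells stably transfected with rat FAAH, in pH 9 Tris/EDTA/glycerol/Triton buffer, incubated 1 h at room temperature with 3H-anandamide. Released labeled ethanolamine separated from substrate on activated charcoal and counted by scintillation; values averaged over runs.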
Structure (SMILES),IC50 (FAAH; read-out: Assay 1 IC50),IC50 (Rat FAAH; read-out: Assay 2 IC50),IC50 (FAAH),IC50 (Rat FAAH)
"O=C(Nc1cccnc1)N1CC2(CCN(Cc3ccc(Cl)c(OC(F)(F)F)c3)CC2)C1 [Example 110, 7-(4-chloro-3-(trifluoromethoxy)benzyl)-N-(pyridin-3-yl)-2,7-diazaspiro[3.5]nonane-2-carboxamide]",1300 nM,6000 nM,,
"O=C(Nc1ccc(-n2nccn2)nc1)N1CCC2(CCCN2Cc2cccc(Oc3ccc(Cl)cc3)c2)CC1 [Example 94, 1-[3-(4-Chloro-phenoxy)-benzyl]-1,8-diaza-spiro[4.5]decane-8-carboxylic acid (6-[1,2,3]triazol-2-yl-pyridin-3-yl)-amide]",370 nM,580 nM,,
"O=C(Nc1cnc2ccccc2c1)N1CCC2(CCN(Cc3cccc(Oc4ccc(Cl)cc4)c3)CC2)CC1 [Example 33, 9-(3-(4-chlorophenoxy)benzyl)-N-(quinolin-3-yl)-3,9-diazaspiro[5.5]undecane-3-carboxamide]",70 nM,10 nM,,
"O=C(Nc1ccc(N2CCOCC2)nc1)N1CC2(CCN(Cc3cccc(Oc4ccc(Cl)cc4)c3)CC2)C1 [Example 55, 7-[3-(4-Chloro-phenoxy)-benzyl]-2,7-diaza-spiro[3.5]nonane-2-carboxylic acid (6-morpholin-4-yl-pyridin-3-yl)-amide, trifluoroacetic acid salt]",6930 nM,6930 nM,,
"O=C(Nc1cccnc1)N1CC2(CCCN(Cc3cccc(Oc4ccc(Cl)cc4)c3)C2)C1 [Example 96, 6-[3-(4-Chloro-phenoxy)-benzyl]-2,6-diaza-spiro[3.5]nonane-2-carboxylic acid pyridin-3-ylamide]",,6000 nM,8000 nM,
"N#Cc1ccc(Oc2cccc(CN3CCC4(CC3)CN(C(=O)Nc3cccnc3)C4)c2)cc1 [Example 127, 7-[3-(4-Cyano-phenoxy)-benzyl]-2,7-diaza-spiro[3.5]nonane-2-carboxylic acid pyridin-3-ylamide]",4000 nM,1100 nM,,
"O=C(Nc1noc2ncccc12)N1CC2(CCN(Cc3cccc(Oc4ccc(Cl)cc4)c3)CC2)C1 [Example 66, 7-[3-(4-Chloro-phenoxy)-benzyl]-2,7-diaza-spiro[3.5]nonane-2-carboxylic acid isoxazolo[5,4-b]pyridin-3-ylamide, trifluoroacetic acid salt]",130 nM,600 nM,,
"O=C(Nc1cccnc1)N1CC2(CCN(Cc3ccc(Cl)c(Cl)c3)CC2)C1 [Example 101, 7-(3,4-dichlorobenzyl)-N-(pyridin-3-yl)-2,7-diazaspiro[3.5]nonane-2-carboxamide]",6000 nM,> 10000 nM,,
"O=C(Nc1cccnc1)N1CCC2(CCN(Cc3cccc(Oc4ccc(Cl)cc4)c3)CC2)C1 [Example 18, 8-(3-(4-chlorophenoxy)benzyl)-N-(pyridin-3-yl)-2,8-diazaspiro[4.5]decane-2-carboxamide]",,,> 10000 nM,5000 nM
"O=C(Nc1cnc2[nH]ccc2c1)N1CC2(CCN(Cc3cccc(Oc4ccc(Cl)cc4)c3)CC2)C1 [Example 40, 7-[3-(4-Chloro-phenoxy)-benzyl]-2,7-diaza-spiro[3.5]nonane-2-carboxylic acid (1H-pyrrolo[2,3-b]pyridin-5-yl)-amide, trifluoroacetic acid salt]",60 nM,40 nM,,
"COc1ccc(NC(=O)N2CC3(CCN(Cc4cccc(Oc5ccc(Cl)cc5)c4)CC3)C2)nn1 [Example 70, 7-[3-(4-Chloro-phenoxy)-benzyl]-2,7-diaza-spiro[3.5]nonane-2-carboxylic acid (6-methoxy-pyridazin-3-yl)-amide, trifluoroacetic acid salt]",3000 nM,2400 nM,,
"O=C(Nc1ncccn1)N1CC2(CCN(Cc3cccc(Oc4ccc(Cl)cc4)c3)CC2)C1 [Example 42, 7-[3-(4-Chloro-phenoxy)-benzyl]-2,7-diaza-spiro[3.5]nonane-2-carboxylic acid pyrimidin-2-ylamide, trifluoroacetic acid salt]",> 10000 nM,1000 nM,,
"Cc1cncc(NC(=O)N2CC3(CCN(Cc4cccc(Oc5ccc(Cl)cc5)c4)CC3)C2)c1 [Example 79, 7-(3-(4-chlorophenoxy)benzyl)-N-(5-methylpyridin-3-yl)-2,7-diazaspiro[3.5]nonane-2-carboxamide, trifluoroacetic acid salt]",70 nM,30 nM,,
"O=C(Nc1cccnc1)N1CC2(CCN(Cc3cccc(Oc4ccccc4)c3)CC2)C1 [Example 119, 7-(3-Phenoxy-benzyl)-2,7-diaza-spiro[3.5]nonane-2-carboxylic acid pyridin-3-ylamide]",100 nM,4000 nM,,
"O=C(Nc1ccc(-n2nccn2)nc1)N1CCCC2(CCN(Cc3cccc(Oc4ccc(Cl)cc4)c3)CC2)C1 [Example 21, N-(6-(2H-1,2,3-triazol-2-yl)pyridin-3-yl)-9-(3-(4-chlorophenoxy)benzyl)-2,9-diazaspiro[5.5]undecane-2-carboxamide]",4000 nM,5000 nM,,
"O=C(Nc1cccnc1)N1CC2(CCN(Cc3cccc(Oc4cccc(C(F)(F)F)c4)c3)CC2)C1 [Example 114, N-(pyridin-3-yl)-7-(3-(3-(trifluoromethyl)phenoxy)benzyl)-2,7-diazaspiro[3.5]nonane-2-carboxamide]",800 nM,4000 nM,,
"O=C(Nc1cnc2[nH]ccc2c1)N1CCC2(CCN(Cc3cccc(Oc4ccc(Cl)cc4)c3)CC2)CC1 [Example 15, 9-[3-(4-Chloro-phenoxy)-benzyl]-3,9-diaza-spiro[5.5]undecane-3-carboxylic acid (1H-pyrrolo[2,3-b]pyridin-5-yl)-amide]",40 nM,60 nM,,
"O=C(Nc1cnccc1Cl)N1CC2(CCN(Cc3cccc(Oc4ccc(Cl)cc4)c3)CC2)C1 [Example 53, 7-[3-(4-Chloro-phenoxy)-benzyl]-2,7-diaza-spiro[3.5]nonane-2-carboxylic acid (4-chloro-pyridin-3-yl)-amide, trifluoroacetic acid salt]",10 nM,10 nM,,
"Cc1nc2cc(NC(=O)N3CC4(CCN(Cc5cccc(Oc6ccc(Cl)cc6)c5)CC4)C3)ccc2o1 [Example 65, 7-[3-(4-Chloro-phenoxy)-benzyl]-2,7-diaza-spiro[3.5]nonane-2-carboxylic acid (2-methyl-benzooxazol-5-yl)-amide]",240 nM,1060 nM,,
"O=C(Nc1cccnc1)N1CC2(CCN(Cc3cccc(C#Cc4ccccc4)c3)CC2)C1 [Example 105, 7-(3-(phenylethynyl)benzyl)-N-(pyridin-3-yl)-2,7-diazaspiro[3.5]nonane-2-carboxamide]",370 nM,8000 nM,,
"O=C(Nc1cnc2[nH]ccc2c1)N1CCC2(CCCN2Cc2cccc(Oc3ccc(Cl)cc3)c2)CC1 [Example 95, 1-[3-(4-Chloro-phenoxy)-benzyl]-1,8-diaza-spiro[4.5]decane-8-carboxylic acid (1H-pyrrolo[2,3-b]pyridin-5-yl)-amide]",780 nM,400 nM,,
"O=C(Nc1cccnc1)N1CCC2(CCN(Cc3cccc(Oc4ccc(Cl)cc4)c3)C2)C1 (stereo not shown) [Example 10, 7-[3-(4-Chloro-phenoxy)-benzyl]-2,7-diaza-spiro[4.4]nonane-2-carboxylic acid pyridin-3-ylamide]",1500 nM,130 nM,,
"O=C(Nc1cccnc1)N1CC2(CCN(Cc3cccc(Oc4cccc(SC(F)(F)F)c4)c3)CC2)C1 [Example 117, N-(pyridin-3-yl)-7-(3-(3-(trifluoromethylthio)phenoxy)benzyl)-2,7-diazaspiro[3.5]nonane-2-carboxamide]",3000 nM,3000 nM,,
